Results taken from article PMC7827406, “Structure–Activity Relationship (SAR) Study of Spautin-1 to Entail the Discovery of Novel NEK4 Inhibitors” (International Journal of Molecular Sciences, 2021).
Where two headings read alike, the source gives them in different places.

Columns and labels:
Test in all cases: biochemical
Parameters in all cases: Eurofins KinaseProfiler full panel at Km ATP, residual kinase activity (%) relative to DMSO
[1] = target: T1, PI3 Kinase (p120g)(h) (Homo sapiens, UniProt P48736)
T1 construct: gene PIK3CG
How it was run: (§1)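 Radiometric kinase activity assays were run with ATP at Km and compounds at 10 µM, and remaining activity (%) was reported. A separate competitive binding screen measured DNA-tagged kinase displaced from immobilized active-site ligands by qPCR, giving percent kinase still bound at 10 µM compound in DMSO.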

[2] = target: T2, ARK5(h) (Homo sapiens, UniProt O60285)
T2 construct: gene NUAK1
T2 sequence (O60285 1-661): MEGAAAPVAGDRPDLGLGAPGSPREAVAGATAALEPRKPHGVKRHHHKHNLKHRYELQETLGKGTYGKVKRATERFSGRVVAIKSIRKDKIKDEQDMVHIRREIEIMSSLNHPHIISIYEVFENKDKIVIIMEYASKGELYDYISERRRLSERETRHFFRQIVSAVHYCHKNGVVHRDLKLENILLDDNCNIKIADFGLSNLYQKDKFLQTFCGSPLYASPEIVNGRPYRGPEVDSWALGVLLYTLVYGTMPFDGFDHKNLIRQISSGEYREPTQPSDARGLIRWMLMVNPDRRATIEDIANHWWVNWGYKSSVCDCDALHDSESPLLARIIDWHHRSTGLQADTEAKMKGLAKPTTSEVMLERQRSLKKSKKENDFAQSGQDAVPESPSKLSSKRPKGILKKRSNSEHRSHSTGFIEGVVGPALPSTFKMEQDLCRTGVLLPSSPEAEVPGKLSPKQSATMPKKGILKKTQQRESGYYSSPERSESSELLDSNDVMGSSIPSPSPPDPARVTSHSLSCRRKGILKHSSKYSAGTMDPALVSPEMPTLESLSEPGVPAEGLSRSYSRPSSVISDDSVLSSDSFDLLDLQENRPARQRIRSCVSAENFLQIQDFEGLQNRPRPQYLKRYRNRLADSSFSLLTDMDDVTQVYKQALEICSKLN
How it was run: as §1

[3] = target: DAPK2(h) (Homo sapiens, UniProt Q9UIK4)
How it was run: as §1

[4] = target: Plk1(h) (Homo sapiens, UniProt P53350)
How it was run: as §1

[5] = target: TYK2(h) (Homo sapiens, UniProt P29597)
How it was run: as §1

[6] = target: CDKL3(h) (Homo sapiens, UniProt Q8IVW4)
How it was run: as §1

[7] = target: T3, CHK2(I157T)(h) (Homo sapiens, UniProt O96017, I157T)
T3 construct: gene CHEK2
How it was run: as §1

[8] = target: NEK4 (Homo sapiens, UniProt P51957)
How it was run: as §1

[9] = target: PASK(h) (Homo sapiens, UniProt Q96RG2)
How it was run: as §1

[10] = target: T4, PKCι(h) (Homo sapiens, UniProt P41743)
T4 construct: gene PRKCI
T4 sequence (P41743 1-596): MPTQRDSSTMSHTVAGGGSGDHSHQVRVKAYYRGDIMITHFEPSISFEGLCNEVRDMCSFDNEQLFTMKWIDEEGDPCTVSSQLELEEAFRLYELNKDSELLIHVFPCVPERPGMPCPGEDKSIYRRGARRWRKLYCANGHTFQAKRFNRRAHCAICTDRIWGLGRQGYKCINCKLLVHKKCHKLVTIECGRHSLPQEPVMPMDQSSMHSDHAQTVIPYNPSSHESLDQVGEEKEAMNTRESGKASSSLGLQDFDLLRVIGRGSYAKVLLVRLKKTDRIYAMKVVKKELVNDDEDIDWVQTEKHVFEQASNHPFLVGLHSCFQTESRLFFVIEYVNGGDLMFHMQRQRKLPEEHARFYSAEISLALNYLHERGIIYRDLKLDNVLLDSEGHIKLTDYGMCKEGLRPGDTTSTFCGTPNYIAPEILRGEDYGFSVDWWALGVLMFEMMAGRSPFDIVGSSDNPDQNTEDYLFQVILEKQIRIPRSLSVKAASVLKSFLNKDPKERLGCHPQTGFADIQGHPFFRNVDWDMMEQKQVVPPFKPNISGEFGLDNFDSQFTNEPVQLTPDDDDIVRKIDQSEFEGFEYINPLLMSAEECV
How it was run: as §1

[11] = read-out: Residual activity (%) 5ay
[12] = read-out: Residual activity (%) Spautin-1 5aa
[13] = read-out: Residual activity (%) 5at
[14] = read-out: Residual activity (%) 5as

NEK4, sequence (P51957 whole entry): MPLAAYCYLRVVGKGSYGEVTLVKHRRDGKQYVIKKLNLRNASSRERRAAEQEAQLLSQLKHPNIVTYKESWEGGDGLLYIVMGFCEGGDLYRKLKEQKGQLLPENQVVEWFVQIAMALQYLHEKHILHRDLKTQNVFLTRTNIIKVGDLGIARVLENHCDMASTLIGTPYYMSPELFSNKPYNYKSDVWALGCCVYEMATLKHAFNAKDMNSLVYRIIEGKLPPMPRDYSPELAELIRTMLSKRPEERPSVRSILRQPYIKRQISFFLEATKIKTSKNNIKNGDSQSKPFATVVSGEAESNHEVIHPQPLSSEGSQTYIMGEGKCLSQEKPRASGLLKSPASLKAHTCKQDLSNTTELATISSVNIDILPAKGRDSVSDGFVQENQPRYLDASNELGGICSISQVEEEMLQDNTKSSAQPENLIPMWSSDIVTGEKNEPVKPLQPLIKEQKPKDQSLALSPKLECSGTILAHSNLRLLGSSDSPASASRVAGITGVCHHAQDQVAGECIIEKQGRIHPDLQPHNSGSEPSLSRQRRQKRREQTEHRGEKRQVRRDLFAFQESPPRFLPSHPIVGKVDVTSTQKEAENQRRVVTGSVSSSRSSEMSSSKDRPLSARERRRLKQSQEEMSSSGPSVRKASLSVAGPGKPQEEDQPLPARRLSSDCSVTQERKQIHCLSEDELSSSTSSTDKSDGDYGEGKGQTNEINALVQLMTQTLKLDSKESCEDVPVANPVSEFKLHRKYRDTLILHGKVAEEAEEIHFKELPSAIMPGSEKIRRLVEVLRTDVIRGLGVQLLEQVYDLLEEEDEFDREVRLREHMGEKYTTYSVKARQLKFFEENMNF
DAPK2(h), sequence (Q9UIK4 whole entry): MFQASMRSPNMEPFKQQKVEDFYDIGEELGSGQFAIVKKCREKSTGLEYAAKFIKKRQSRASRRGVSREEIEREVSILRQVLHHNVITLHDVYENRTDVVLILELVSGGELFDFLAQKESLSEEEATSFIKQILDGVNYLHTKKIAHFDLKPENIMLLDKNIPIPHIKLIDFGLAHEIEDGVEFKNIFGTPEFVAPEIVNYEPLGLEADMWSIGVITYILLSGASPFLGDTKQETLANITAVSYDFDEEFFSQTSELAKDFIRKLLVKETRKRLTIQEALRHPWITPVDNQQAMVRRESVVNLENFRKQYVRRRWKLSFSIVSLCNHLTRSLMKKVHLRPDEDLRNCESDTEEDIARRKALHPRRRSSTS
Plk1(h), sequence (P53350 whole entry): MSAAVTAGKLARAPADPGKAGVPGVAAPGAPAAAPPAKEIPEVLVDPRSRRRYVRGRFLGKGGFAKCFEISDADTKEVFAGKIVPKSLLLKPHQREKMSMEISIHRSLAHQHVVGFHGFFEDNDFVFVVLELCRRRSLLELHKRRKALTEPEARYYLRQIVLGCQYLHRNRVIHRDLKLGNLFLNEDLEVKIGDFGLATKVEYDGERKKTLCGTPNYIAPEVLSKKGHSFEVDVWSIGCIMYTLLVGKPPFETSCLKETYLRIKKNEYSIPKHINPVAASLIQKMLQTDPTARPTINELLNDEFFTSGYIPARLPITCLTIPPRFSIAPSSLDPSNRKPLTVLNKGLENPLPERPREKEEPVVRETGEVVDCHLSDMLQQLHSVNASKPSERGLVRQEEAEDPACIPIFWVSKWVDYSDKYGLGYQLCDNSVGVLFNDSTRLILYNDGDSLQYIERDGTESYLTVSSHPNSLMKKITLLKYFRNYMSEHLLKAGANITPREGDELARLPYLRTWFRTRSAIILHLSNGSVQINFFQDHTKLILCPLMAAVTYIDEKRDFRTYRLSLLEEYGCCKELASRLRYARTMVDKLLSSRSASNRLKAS
PASK(h), sequence (Q96RG2 whole entry): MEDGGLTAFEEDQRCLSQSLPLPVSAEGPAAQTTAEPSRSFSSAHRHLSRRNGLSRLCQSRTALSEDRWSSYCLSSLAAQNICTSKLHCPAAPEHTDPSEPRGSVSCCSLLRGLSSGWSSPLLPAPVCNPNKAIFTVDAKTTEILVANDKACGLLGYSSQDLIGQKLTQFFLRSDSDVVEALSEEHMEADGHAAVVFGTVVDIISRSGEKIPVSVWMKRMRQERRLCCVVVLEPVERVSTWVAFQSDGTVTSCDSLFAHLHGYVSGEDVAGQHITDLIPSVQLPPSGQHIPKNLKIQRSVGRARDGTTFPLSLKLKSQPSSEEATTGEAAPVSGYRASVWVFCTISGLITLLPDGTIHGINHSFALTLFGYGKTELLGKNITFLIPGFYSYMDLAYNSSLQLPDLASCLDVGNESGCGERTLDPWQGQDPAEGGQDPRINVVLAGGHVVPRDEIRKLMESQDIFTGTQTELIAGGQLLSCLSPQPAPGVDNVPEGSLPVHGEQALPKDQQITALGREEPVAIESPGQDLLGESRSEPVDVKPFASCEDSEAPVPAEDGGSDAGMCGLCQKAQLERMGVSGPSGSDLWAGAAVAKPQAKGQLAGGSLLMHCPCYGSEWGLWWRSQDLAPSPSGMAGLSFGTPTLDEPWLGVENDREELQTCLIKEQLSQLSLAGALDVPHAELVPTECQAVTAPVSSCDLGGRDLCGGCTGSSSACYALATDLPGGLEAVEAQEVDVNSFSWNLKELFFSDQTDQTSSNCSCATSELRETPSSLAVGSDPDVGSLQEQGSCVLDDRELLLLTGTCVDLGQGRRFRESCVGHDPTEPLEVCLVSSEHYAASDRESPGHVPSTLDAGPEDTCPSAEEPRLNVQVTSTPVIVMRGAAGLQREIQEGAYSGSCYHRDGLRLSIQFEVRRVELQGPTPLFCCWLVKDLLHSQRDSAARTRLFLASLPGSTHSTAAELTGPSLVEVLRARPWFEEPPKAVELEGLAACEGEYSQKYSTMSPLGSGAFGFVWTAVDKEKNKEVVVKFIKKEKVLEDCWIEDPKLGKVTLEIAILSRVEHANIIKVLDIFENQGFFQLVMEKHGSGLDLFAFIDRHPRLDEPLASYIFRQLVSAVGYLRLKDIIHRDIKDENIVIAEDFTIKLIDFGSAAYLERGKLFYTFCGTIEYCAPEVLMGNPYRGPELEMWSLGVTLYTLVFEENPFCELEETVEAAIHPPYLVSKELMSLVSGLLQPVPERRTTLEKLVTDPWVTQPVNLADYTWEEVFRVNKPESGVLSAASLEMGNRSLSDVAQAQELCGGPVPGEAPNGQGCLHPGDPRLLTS
TYK2(h), sequence (P29597 whole entry): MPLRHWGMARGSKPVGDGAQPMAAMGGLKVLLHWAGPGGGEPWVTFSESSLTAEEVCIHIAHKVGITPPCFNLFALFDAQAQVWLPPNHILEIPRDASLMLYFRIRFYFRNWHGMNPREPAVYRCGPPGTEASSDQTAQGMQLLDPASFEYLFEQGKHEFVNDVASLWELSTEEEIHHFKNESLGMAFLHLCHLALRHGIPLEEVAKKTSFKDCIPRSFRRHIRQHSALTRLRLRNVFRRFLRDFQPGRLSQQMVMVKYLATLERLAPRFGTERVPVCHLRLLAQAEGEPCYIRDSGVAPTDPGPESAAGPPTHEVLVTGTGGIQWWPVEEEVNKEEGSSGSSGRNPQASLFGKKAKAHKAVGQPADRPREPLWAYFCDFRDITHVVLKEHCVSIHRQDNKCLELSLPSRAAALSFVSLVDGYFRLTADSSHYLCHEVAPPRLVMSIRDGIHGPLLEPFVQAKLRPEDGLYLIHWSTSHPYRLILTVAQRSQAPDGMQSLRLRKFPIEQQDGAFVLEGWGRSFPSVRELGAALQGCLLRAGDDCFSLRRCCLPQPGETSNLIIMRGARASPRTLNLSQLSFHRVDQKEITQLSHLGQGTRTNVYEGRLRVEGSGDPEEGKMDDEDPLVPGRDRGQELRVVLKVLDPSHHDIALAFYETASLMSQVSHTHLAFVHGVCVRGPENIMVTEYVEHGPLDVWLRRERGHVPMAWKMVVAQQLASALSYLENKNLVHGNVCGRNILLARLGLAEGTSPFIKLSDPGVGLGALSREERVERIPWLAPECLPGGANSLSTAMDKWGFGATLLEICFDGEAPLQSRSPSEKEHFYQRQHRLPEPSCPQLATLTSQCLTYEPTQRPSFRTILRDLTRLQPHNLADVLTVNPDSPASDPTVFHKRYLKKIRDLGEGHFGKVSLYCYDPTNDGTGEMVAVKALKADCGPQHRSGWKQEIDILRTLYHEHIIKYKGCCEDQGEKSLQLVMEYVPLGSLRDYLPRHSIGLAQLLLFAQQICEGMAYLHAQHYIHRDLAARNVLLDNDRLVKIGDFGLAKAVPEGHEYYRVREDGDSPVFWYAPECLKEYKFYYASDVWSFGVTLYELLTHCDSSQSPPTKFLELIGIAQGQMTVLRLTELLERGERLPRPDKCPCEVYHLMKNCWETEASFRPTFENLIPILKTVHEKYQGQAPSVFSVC
T3 sequence (O96017 whole entry I157T): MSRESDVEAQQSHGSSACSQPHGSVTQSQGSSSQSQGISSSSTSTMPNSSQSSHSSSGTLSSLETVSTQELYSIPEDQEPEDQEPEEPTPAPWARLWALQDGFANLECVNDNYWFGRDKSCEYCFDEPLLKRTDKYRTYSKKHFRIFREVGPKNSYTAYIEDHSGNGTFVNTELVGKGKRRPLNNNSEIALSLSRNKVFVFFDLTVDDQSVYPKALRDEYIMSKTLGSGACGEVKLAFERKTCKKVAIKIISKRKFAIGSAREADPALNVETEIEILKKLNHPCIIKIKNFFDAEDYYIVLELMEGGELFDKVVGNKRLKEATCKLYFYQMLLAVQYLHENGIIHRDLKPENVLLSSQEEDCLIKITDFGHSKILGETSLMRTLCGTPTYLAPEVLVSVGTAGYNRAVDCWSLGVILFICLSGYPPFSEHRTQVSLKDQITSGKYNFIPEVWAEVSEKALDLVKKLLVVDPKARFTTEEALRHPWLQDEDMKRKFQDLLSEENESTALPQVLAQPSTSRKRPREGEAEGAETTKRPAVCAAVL

COc1ccc2ncnc(Nc3cccc(F)c3)c2c1 [5ay, N-(3-Fluorophenyl)-6-Methoxy-4-Quinazolinamine]
remaining activity at 10 µM [1, 11]: 91% | remaining activity at 10 µM [2, 11]: 93% | remaining activity at 10 µM [3, 11]: 91% | remaining activity at 10 µM [4, 11]: 96% | remaining activity at 10 µM [5, 11]: 75% | remaining activity at 10 µM [6, 11]: 29% | remaining activity at 10 µM [7, 11]: 91% | remaining activity at 10 µM [8, 11]: 30% | remaining activity at 10 µM [9, 11]: 65% | remaining activity at 10 µM [10, 11]: 89%

Fc1ccc(CNc2ncnc3ccc(F)cc23)cc1 [5aa, 6-Fluoro-N-(4-fluorobenzyl)-4-Quinazolinamine]
remaining activity at 10 µM [1, 12]: 91% | remaining activity at 10 µM [2, 12]: 99% | remaining activity at 10 µM [3, 12]: 94% | remaining activity at 10 µM [4, 12]: 93% | remaining activity at 10 µM [5, 12]: 109% | remaining activity at 10 µM [6, 12]: 77% | remaining activity at 10 µM [7, 12]: 88% | remaining activity at 10 µM [8, 12]: 71% | remaining activity at 10 µM [9, 12]: 66% | remaining activity at 10 µM [10, 12]: 84%

Fc1ccc2ncnc(NCCc3ccc(Cl)cc3)c2c1 [5at, N-[2-(4-Chlorophenyl)Ethyl]-6-Fluoro-4-Quinazolinamine]
remaining activity at 10 µM [1, 13]: 90% | remaining activity at 10 µM [2, 13]: 105% | remaining activity at 10 µM [3, 13]: 101% | remaining activity at 10 µM [4, 13]: 92% | remaining activity at 10 µM [5, 13]: 84% | remaining activity at 10 µM [6, 13]: 71% | remaining activity at 10 µM [7, 13]: 99% | remaining activity at 10 µM [8, 13]: 12% | remaining activity at 10 µM [9, 13]: 30% | remaining activity at 10 µM [10, 13]: 98%

Fc1ccc(CCNc2ncnc3ccc(F)cc23)cc1 [5as, 6-Fluoro-N-[2-(4-Fluorophenyl)Ethyl]-4-Quinazolinamine]
remaining activity at 10 µM [1, 14]: 92% | remaining activity at 10 µM [2, 14]: 101% | remaining activity at 10 µM [3, 14]: 100% | remaining activity at 10 µM [4, 14]: 96% | remaining activity at 10 µM [5, 14]: 86% | remaining activity at 10 µM [6, 14]: 65% | remaining activity at 10 µM [7, 14]: 105% | remaining activity at 10 µM [9, 14]: 44% | remaining activity at 10 µM [10, 14]: 114%
